These results are taken from patent publication US12054466B2, “Compounds for the treatment of clostridium difficile infection” (University of Notre Dame du Lac, priority 2016, dated 2024).

≈ marks a conversion by molar mass, not a printed value. Where two headings read alike, the source gives them in different places.

The MIC is the smallest concentration in the dilution series that meets the test's criterion for growth inhibition.

One assay has as its system C. difficile ATCC43255. Briefly: MIC, broth microdilution. It counts as cell-based. The settings on record: Clostridioides difficile. In general terms: Dilution methods test growth across graded concentrations, often in twofold steps.
Assay [1] relates to C. difficile. Briefly: MIC against C. difficile (strain not named; 14 strains overall). The settings on record: for C. difficile MIC: strain not named. It counts as cell-based, Clostridium difficile.
In the next assay the test system is Bacteroides ovatus. Briefly: MIC against common gut bacteria. In kind it is cell-based. The settings on record: read-out: MIC.
The subject of another assay is Bacteroides eggerthii. Description: MIC against common gut bacteria. The settings on record: read-out: MIC. It counts as cell-based.
The subject of assay [2] is Lactobacillus gasseri HM-644. Briefly: MIC against common gut bacteria. It counts as cell-based. The settings on record: HM644; Lactobacillus gasseri HM-644; read-out: MIC.
Another assay concerns Veillonella sp. HM-49. Briefly: MIC against common gut bacteria. It counts as cell-based. The settings on record: SP.HM49; Veillonella sp. HM-49; read-out: MIC.
For the next assay, the system named is C. difficile BAA-1870. Description: MIC, broth microdilution. In kind it is cell-based. The settings on record: Clostridioides difficile, BAA1870, C. difficile BAA-1870 (NAP1, ribotype 27).
Another assay relates to Bacteroides vulgatus. Briefly: MIC against common gut bacteria. It counts as cell-based. The settings on record: Phocaeicola vulgatus; Bacteroides vulgatus; read-out: MIC.
The test system of another assay is C. difficile infection. The settings on record: patients treated for CDI; cited from earlier work.
The next assay has as its system C. difficile ATCC43598. Description: MIC, broth microdilution. The settings on record: Clostridioides difficile, C. difficile ATCC43598. In kind it is cell-based.
Assay [3] deals with Fusobacterium nucleatum HM-992. Description: MIC against common gut bacteria. In kind it is cell-based. The settings on record: HM992; Fusobacterium nucleatum HM-992; read-out: MIC.
Assay [4] relates to C. difficile. The settings on record: cited from earlier work.
For assay [5], the system named is Corynebacterium sp. HM-784. Description: MIC against common gut bacteria. It counts as cell-based. The settings on record: SP.HM784; Corynebacterium sp. HM-784; incubated aerobically; read-out: MIC. The method, then:
Minimally-inhibitory concentrations. MICs for C. difficile strains and the common gut bacteria were determined using broth microdilution techniques as reported earlier using brucella broth supplemented with hemin and vitamin K or supplemented BHIS broth (Babakhani et al., J Antimicrob Chemother 2013, 68(3), 515). Lactobacillus MRS broth was used for lactobacillus strains. […] All incubations unless specified otherwise were carried out at 24 or 48 h at 37° C. in an anaerobic chamber (Whitley DG250 workstation, Microbiology International, Frederick, MD). Corynebacterium and lactobacillus species were incubated aerobically.

Another assay concerns Bacteroides caccae. Briefly: MIC against common gut bacteria. It counts as cell-based. The settings on record: read-out: MIC.
For assay [6], the system named is Bacteroides fragilis HM-709. Description: MIC against common gut bacteria. It counts as cell-based. The settings on record: HM709; Bacteroides fragilis HM-709; read-out: MIC.
A further assay relates to C. difficile BAA-1801. Briefly: MIC, broth microdilution. The settings on record: Clostridioides difficile, BAA1801, C. difficile BAA-1801 (nontoxigenic). It counts as cell-based.
The test system of assay [7] is Bifidobacterium longum HM-846. Description: MIC against common gut bacteria. The settings on record: HM846; Bifidobacterium longum HM-846; read-out: MIC. In kind it is cell-based.
The next assay relates to C. difficile BAA-1812. Description: MIC, broth microdilution. It counts as cell-based. The settings on record: Clostridioides difficile, BAA1812, C. difficile BAA-1812.
For the next assay, the system named is C. difficile BAA-1804. Description: MIC, broth microdilution. It counts as cell-based. The settings on record: Clostridioides difficile, BAA1804, C. difficile BAA-1804.
A further assay has as its system C. difficile BAA-1803. Briefly: MIC, broth microdilution. In kind it is cell-based. The settings on record: Clostridioides difficile, BAA1803, C. difficile BAA-1803 (NAP1, ribotype 027).
A further assay concerns Bacteroides fragilis. Briefly: MIC against common gut bacteria. The settings on record: read-out: MIC. It counts as cell-based.
Assay [8] deals with Lactobacillus reuteri HM-102. Briefly: MIC against common gut bacteria. In kind it is cell-based. The settings on record: Limosilactobacillus reuteri, HM102; Lactobacillus reuteri HM-102; read-out: MIC.
Assay [9] relates to DNA, protein and peptidoglycan synthesis in C. difficile ATCC 43255. Briefly: Macromolecular synthesis assays. In kind it is cell-based. The settings on record: N-acetyl-d-[6-3H]-glucosamine incorporation; ½ MIC; 120 min. The source says:
Macromolecular synthesis assays. The method of Mathur et al (J Antimicrob Chemother 2011, 66(5), 1087) was used with a few modifications. [2,8-^3H]-adenine (40 Ci/mmol), 1-[3,4,5-^3H(N)]-leucine (120 Ci/mmol), and N-acetyl-d-[6-^3H]-glucosamine (30 Ci/mmol) were purchased from Perkin Elmer (Waltham, MA). Ciproflaxin, linezolid, and oxacillin, were used as positive controls for DNA, protein, and peptidoglycan, respectively. Ciprofloxacin and oxacillin were purchased from Sigma-Aldrich (St. Louis, MO), linezolid was obtained from AmplaChem Inc. (Carmel, IN). […] Aliquots were taken every 30 min for radioactive counting and viability. Optimal incubation times were 60 min for DNA, 180 min for protein, and 120 min for peptidoglycan.

[10] abbreviates: ATCC43255, FIG. 3 legend, C. difficile, read-out: MIC of positive controls of the macromolecular synthesis assays.

For the molecule `O=C(O)c1cn(C2CC2)c2cc(N3CCNCC3)c(F)cc2c1=O` [ciprofloxacin], the minimum inhibitory concentration (MIC) in the assay on C. difficile ATCC43255 (setting [10]) worked out at 8 µg/mL.
With `Oc1ccc(-c2nc(-c3ccc(OC4CCCC=C4Br)cc3)no2)cc1` (centres unmarked) [ix], in the assay on C. difficile [1], the C. difficile MIC was 2 µg/mL.
Regarding `CC(=O)NC[C@H]1CN(c2ccc(N3CCOCC3)c(F)c2)C(=O)O1` [linezolid], the MIC in the assay with C. difficile ATCC43255 (setting [10]) was determined as 2 µg/mL.
On to `Cc1ncc([N+](=O)[O-])n1CCO` [metronidazole], for which the MIC was 2 µg/mL (≈ 11.7 µM) in the assay on Bacteroides ovatus; 2 µg/mL (≈ 11.7 µM) in the assay on Bacteroides eggerthii; greater than 32 µg/mL in assay [2]; 2 µg/mL (≈ 11.7 µM) with Veillonella sp. HM-49; 0.25 µg/mL (≈ 1.46 µM) with C. difficile BAA-1870 (24 h, read-out: MIC at 24 h); 0.5 µg/mL (≈ 2.92 µM) with C. difficile BAA-1870 (48 h, read-out: MIC at 48 h). Moreover, the MIC with Bacteroides vulgatus was determined as 2 µg/mL (≈ 11.7 µM); with C. difficile ATCC43598 (24 h, read-out: MIC at 24 h), 0.125 µg/mL (≈ 0.73 µM); in the assay with C. difficile ATCC43598 (48 h, read-out: MIC at 48 h), 0.125 µg/mL (≈ 0.73 µM); in assay [3], 2 µg/mL (≈ 11.7 µM); in the assay with C. difficile ATCC43255 (C. difficile ATCC43255, 24 h, read-out: MIC at 24 h), 0.01 µg/mL (≈ 0.0584 µM); in the assay with C. difficile ATCC43255 (C. difficile ATCC43255, 48 h, read-out: MIC at 48 h), 0.01 µg/mL (≈ 0.0584 µM). Moreover, the minimal inhibitory concentration (MIC) in assay [5] was greater than 32 µg/mL; in the assay on Bacteroides caccae it was 2 µg/mL (≈ 11.7 µM); in assay [6] it was 0.5 µg/mL (≈ 2.92 µM); with C. difficile BAA-1801 (24 h, read-out: MIC at 24 h), 0.125 µg/mL (≈ 0.73 µM); in the assay with C. difficile BAA-1801 (48 h, read-out: MIC at 48 h), 0.125 µg/mL (≈ 0.73 µM); in assay [7] it was 0.5 µg/mL (≈ 2.92 µM). Further, the MIC in the assay with C. difficile BAA-1812 (24 h, read-out: MIC at 24 h) was determined as 0.25 µg/mL (≈ 1.46 µM); in the assay on C. difficile BAA-1812 (48 h, read-out: MIC at 48 h) it was 0.25 µg/mL (≈ 1.46 µM); in the assay with C. difficile BAA-1804 (24 h, read-out: MIC at 24 h), 0.25 µg/mL (≈ 1.46 µM); in the assay on C. difficile BAA-1804 (48 h, read-out: MIC at 48 h), 0.25 µg/mL (≈ 1.46 µM); with C. difficile BAA-1803 (24 h, read-out: MIC at 24 h), 0.25 µg/mL (≈ 1.46 µM); with C. difficile BAA-1803 (48 h, read-out: MIC at 48 h) it was 0.5 µg/mL (≈ 2.92 µM). Moreover, the MIC in the assay on Bacteroides fragilis is 1 µg/mL (≈ 5.84 µM); in assay [8] it was greater than 32 µg/mL. In addition, the “Patients with recurrence of the infection” value in the assay with C. difficile infection was “About 25%”. Also, in the assay with C. difficile [1] (14 C. difficile strains), the “MIC range in 14 C. difficile strains” value lay in the range of 0.1 to 0.25 µg/mL. For the same molecule, the “Activity against C. difficile spores” value in the assay with C. difficile [4] (at 8× or 80× MIC) is “not active”. For the same molecule, the “Inhibition of toxin production” value with C. difficile [4] (at 8×MIC) is recorded as “Neither vancomycin nor metronidazole inhibit toxin production”.
For `Cc1onc(-c2ccccc2)c1C(=O)N[C@@H]1C(=O)N2[C@@H]1SC(C)(C)[C@@H]2C(=O)O` [oxacillin], the minimum inhibitory concentration (MIC) in the assay on C. difficile ATCC43255 (setting [10]) was determined as 8 µg/mL. The “Inhibition of peptidoglycan synthesis” value in assay [9] is on record as 54.1±13%.
For the molecule `CCCCCc1ccc(/C(C)=C/C(=O)N[C@H](Cc2c[nH]c3ccccc23)C(=O)N[C@H](CC(N)=O)C(=O)N[C@@H](CC(=O)O)C(=O)N[C@@H]2C(=O)NCC(=O)N[C@@H](CCCN)C(=O)N[C@@H](CC(=O)O)C(=O)N[C@H](C)C(=O)N[C@@H](CC(=O)O)C(=O)NCC(=O)N[C@H](CO)C(=O)N[C@@H]([C@H](C)CC(=O)O)C(=O)N[C@@H](CC(=O)c3ccccc3N)C(=O)O[C@@H]2C)cc1` [surotomycin], the “Inhibition of toxin production” value with C. difficile [4] ([…]) is reported as “nor inhibits toxin production”.
Molecule `Oc1ccc(-c2nc(-c3ccc(OC4CC4)cc3)no2)cc1` [vii] yielded a C. difficile MIC with C. difficile [1] of 8 µg/mL.
Same read-out and setting: in the case of `Oc1ccc(-c2nc(-c3ccc(OC4CCC=C4Br)cc3)no2)cc1` (centres unmarked) [xi] it was 2 µg/mL; in that of `Oc1ccc(-c2nc(-c3ccc(OC(F)(F)F)cc3)no2)cc1` [xvii], 4 µg/mL.
Still for that read-out and setting: for `NCc1ccc(-c2nc(-c3ccc(Oc4ccc(C(F)(F)F)cc4)cc3)no2)cc1` [xxi] the value was 4 µg/mL; for `Oc1ccc(-c2nc(-c3ccc(OC4CCCC4)cc3)no2)cc1` [xxii], 2 µg/mL.
